Patent US20090215822A1, “Substituted Oxadiazole Derivatives as Positive Allosteric Modulators of Metabotropic Glutamate Receptors” (NIKEM RESEARCH SRL, priority 2005, published 2009)

What was measured:
[1] = target: T1, mGluR5 (Rattus norvegicus, UniProt P31424); experiment: mGluR5 binding assay ([3H]-MPEP, rat brain membranes); details: 3 nM [3H]-MPEP, rat cortical membranes, 1 h at 4° C.; read-out: IC50, inhibition of [3H]-MPEP binding
T1 construct: positive allosteric modulators of mGluR5 receptors in native preparations; endogenous in cells; host or cells: primary cortical astrocytes from Sprague-Dawley rat embryos (E16-19)
T1 sequence (P31424 21-1203): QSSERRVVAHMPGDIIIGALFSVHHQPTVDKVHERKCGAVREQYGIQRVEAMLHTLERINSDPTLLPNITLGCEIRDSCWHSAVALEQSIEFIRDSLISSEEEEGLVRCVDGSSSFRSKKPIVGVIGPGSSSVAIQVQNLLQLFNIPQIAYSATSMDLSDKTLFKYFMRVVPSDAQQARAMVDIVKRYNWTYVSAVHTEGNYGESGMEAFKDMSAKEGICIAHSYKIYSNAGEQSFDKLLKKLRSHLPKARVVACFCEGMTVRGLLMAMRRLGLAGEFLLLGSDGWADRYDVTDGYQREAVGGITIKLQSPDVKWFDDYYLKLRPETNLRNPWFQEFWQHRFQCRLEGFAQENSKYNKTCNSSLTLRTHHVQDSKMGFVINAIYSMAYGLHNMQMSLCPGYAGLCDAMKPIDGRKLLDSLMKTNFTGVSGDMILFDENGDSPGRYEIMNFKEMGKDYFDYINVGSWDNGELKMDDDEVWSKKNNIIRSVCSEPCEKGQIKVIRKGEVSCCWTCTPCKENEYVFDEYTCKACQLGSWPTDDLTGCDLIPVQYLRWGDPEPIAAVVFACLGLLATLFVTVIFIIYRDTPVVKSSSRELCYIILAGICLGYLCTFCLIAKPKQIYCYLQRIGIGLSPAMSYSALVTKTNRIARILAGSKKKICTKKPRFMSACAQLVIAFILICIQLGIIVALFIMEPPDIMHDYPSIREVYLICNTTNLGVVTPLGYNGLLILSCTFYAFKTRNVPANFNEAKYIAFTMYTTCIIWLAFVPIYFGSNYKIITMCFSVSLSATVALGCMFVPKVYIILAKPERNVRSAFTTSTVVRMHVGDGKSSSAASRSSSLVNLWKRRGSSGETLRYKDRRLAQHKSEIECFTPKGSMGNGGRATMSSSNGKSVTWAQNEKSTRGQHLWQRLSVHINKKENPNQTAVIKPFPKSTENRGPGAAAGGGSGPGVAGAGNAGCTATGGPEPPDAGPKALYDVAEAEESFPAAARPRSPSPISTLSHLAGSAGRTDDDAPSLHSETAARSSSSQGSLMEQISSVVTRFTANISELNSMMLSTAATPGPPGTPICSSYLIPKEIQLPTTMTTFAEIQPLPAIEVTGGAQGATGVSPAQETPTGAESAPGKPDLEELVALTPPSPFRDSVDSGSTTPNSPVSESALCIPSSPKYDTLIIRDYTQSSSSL
Excerpt: Activity of compounds of the invention was examined following a radioligand binding technique using whole rat brain and tritiated 2-methyl-6-(phenylethynyl)-pyridine ([^3H]-MPEP) as a ligand following similar methods than those described in Gasparini et al. (2002) Bioorg. Med. Chem. Lett. 12:407-409 and in Anderson et al. (2002) J. Pharmacol. Exp. Ther. 303 (3) 1044-1051.
Cortices were dissected out from brains of 200-300 g Sprague-Dawley rats (Charles River Laboratories, L'Arbresle, France). Tissues were homogenized in 10 volumes (vol/wt) of ice-cold 50 mM Hepes-NaOH (pH 7.4) using a Polytron disrupter (Kinematica A G, Luzern, Switzerland) and centrifuged for 30 min at 40,000 g. (4° C.). […] Protein concentration was determined by the Bradford method (Bio-Rad protein assay, Reinach, Switzerland) with bovine serum albumin as standard.
Membranes were thawed and resuspended in binding buffer containing 20 mM HEPES-NaOH, 3 mM MgCl2, 3 mM CaCl2, 100 mM NaCl, pH 7.4. […] Radioactivity was determined by liquid scintillation spectrometry using a 96-well plate reader (TopCount, Perkin-Elmer, Downers Grove, USA).
The inhibition curves were generated using the Prism GraphPad program (Graph Pad Software Inc, San Diego, USA). […] The mean of IC50 obtained from at least three independent experiments of selected molecules performed in duplicate were calculated.

[2] = target: T2, rat mGluR5 receptor (Rattus norvegicus, UniProt P31424); experiment: mGluR5 assay on HEK-expressing rat mGluR5 (fluorescent cell based Ca2+ mobilization assay); details: HEK-293 cells stably expressing rat mGluR5; no co-addition of glutamate; mean of at least three independent experiments in duplicate; read-out: Ca++ Flux (mean EC50)
T2 construct: expressed in transfected cells
T2 sequence (P31424 21-1171 isoform P31424-2 limits assumed): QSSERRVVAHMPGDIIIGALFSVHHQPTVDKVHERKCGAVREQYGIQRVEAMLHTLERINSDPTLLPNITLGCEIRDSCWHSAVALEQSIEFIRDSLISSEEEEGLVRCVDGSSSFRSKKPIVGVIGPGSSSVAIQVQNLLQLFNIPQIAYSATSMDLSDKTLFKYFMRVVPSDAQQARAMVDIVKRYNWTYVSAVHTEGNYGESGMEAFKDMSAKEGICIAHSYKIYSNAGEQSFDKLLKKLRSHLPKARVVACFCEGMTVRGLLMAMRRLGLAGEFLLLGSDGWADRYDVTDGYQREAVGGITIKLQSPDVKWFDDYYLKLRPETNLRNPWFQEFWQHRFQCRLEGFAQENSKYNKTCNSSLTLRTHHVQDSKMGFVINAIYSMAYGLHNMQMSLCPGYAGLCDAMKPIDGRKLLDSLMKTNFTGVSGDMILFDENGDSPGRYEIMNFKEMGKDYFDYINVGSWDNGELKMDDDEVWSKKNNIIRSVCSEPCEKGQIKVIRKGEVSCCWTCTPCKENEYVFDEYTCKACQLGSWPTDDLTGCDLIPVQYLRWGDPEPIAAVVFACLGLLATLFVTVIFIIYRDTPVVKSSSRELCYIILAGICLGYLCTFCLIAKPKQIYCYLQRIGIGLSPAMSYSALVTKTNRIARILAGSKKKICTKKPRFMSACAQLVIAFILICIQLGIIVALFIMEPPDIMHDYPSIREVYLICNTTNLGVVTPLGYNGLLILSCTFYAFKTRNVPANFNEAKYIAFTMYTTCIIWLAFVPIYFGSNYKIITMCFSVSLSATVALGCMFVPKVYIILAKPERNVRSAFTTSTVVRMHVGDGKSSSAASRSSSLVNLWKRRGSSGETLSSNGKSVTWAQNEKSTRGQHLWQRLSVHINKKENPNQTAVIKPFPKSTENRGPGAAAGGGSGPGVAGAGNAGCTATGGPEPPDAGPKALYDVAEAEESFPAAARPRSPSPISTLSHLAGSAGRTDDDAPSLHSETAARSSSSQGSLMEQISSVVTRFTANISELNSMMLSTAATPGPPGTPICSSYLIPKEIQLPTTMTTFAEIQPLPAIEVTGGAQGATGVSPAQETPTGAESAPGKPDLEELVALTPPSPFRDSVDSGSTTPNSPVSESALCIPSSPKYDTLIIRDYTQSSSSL
Experimental: Positive functional expression of HEK-293 cells stably expressing rat mGluR5 receptor was determined by measuring intracellular Ca^2+ changes using a Fluorometric Imaging Plate Reader (FLIPR, Molecular Devices, Sunnyvale, Calif.) in response to glutamate or selective known mGluR5 agonists and antagonists. Rat mGluR5 RT-PCR products in HEK-293 cells were sequenced and found 100% identical to rat mGluR5 Genbank reference sequence (NM_017012). HEK-293 cells expressing rmGluR5 were maintained in media containing DMEM, dialyzed Fetal Bovine Serum (10%), Glutamax™ (2 mM), Penicillin (100 units/ml), Streptomycin (100 μg/ml), Geneticin (100 μg/ml) and Hygromycin-B (40 μg/ml) at 37° C./5% CO2.
After one day of incubation, cells were washed with assay buffer containing: 142 mM NaCl, 6 mM KCl, 1 mM Mg2SO4, 1 mM CaCl2, 20 mM HEPES, 1 g/L glucose, 0.125 mM sulfinpyrazone, pH 7.4. After 60 min of loading with 4 uM Fluo-4 (TefLabs, Austin, Tex.), the cells were washed three times with 50 μl of PBS Buffer and resuspended in […] of assay Buffer. The plates were then transferred to a Fluorometric Imaging Plate Reader (FLIPR, Molecular Devices, Sunnyvale, Calif.) for the assessment of intracellular calcium flux. After monitoring the baseline fluorescence for 10 seconds, increasing concentrations of representative compound (from 0.01 to 60 μM) of the present invention diluted in Assay Buffer (15 μl of 4× dilutions) was added to the cell. The final DMSO concentration in the assay was 0.3%. In each experiment, fluorescence was then monitored as a function of time for 3 minutes and the data analyzed using Microsoft Excel and GraphPad Prism. Each data point was also measured two times.
Under these experimental conditions, this HEK-rat mGluR5 cell line is able to directly detect positive allosteric modulators without the need of co-addition of glutamate or mGluR5 agonist.
The concentration-response curves of representative compounds of the present invention were generated using the Prism GraphPad software (Graph Pad Inc, San Diego, USA). The curves were fitted to a four-parameter logistic equation:
(Y=Bottom+(Top-Bottom)/(1+10̂((Log EC50−X)*Hill Slope)
allowing determination of EC50 values.
The Table 1 below represents the mean EC50 obtained from at least three independent experiments of selected molecules performed in duplicate.

[3] = tested on: Male C57BL6/j mice; experiment: Amphetamine model of schizophrenia (amphetamine-induced locomotor activity); assay type: in vivo; details: 30 mg/kg ip, 120 min before amphetamine 3.0 mg/kg s.c., first 30 minutes of a 60 minute session
Excerpt: Amphetamine-induced increases in locomotor ambulation are well known and are widely used as a model of the positive symptoms of schizophrenia. This model is based on evidence that amphetamine increases motor behaviors and can induce a psychotic state in humans (Yui et al. (2000) Ann. N.Y. Acad. Sci. 914:1-12). Further, it is well known that amphetamine-induced increases in locomotor activity are blocked by antipsychotics drugs that are effective in the treatment of schizophrenia (Arnt (1995) Eur. J. Pharmacol. 283:55-62).
Subjects: The present studies were performed in accordance with the animal care and use policies of Addex Pharmaceuticals and the laws and directives of Switzerland governing the care and use of animals. Male C57BL6/j mice (20-30 g) 7 weeks of age at the time of delivery were group housed in a temperature and humidity controlled facility on a 12 hour light/dark cycle for at least 7 days before use. Mice had access to food and water ad libitum except during locomotor activity experiments.
Assessment of locomotor (ambulatory) activity: The effects of compounds on amphetamine-induced locomotor activation in mice were tested. […] Locomotor activity (ambulations) was monitored by a videotracking system (VideoTrack, Viewpoint, Champagne au Mont d'Or, France) that recorded the ambulatory movements of mice. […] On test days, test compounds (10, 30, 50 or 100 mg/kg i.p. (intraperitoneal)) or vehicle were administered 120 minutes before amphetamine (3.0 mg/kg s.c.) or saline injection: Mice were placed into the locomotor boxes immediately after amphetamine or saline vehicle injection and their locomotor activity, defined as the distance traveled in centimeters (cm), was measured for 60 minutes.
Compound administration: The test compound was dissolved in a 5% DMSO/20% Tween 80/75% saline vehicle and administered in a volume of 10 ml/kg. […] D-amphetamine sulfate (Amino A G, Neuenhof, Switzerland) was dissolved in saline and administered at a dose of 3.0 mg/kg s.c. (expressed as the base) in a volume of 10 ml/kg. […]

- melting point: 157 to 160 °C
- IC50 [1]: < 30 µM
- EC50 [2]: < 1 µM
SMILES: O=C(c1ccc(F)cc1)N1CCC[C@H](c2noc(-c3ccc(F)cc3)n2)C1 [Example 1, (4-Fluoro-phenyl)-{(S)-3-[5-(4-fluoro-phenyl)-[1,2,4]oxadiazol-3-yl]-piperidin-1-yl}-methanone]
- increase in locomotor activity induced by amphetamine [3]: significantly attenuated
- increase in locomotor activity induced by amphetamine ([3]; listed as compound # 1): significantly attenuated
- increase in locomotor activity induced by amphetamine ([3]; listed as example #1): significantly attenuate
